According to patent US20260355184A1, “SMALL MOLECULE DEGRADERS OF HIV-1 TAT PROTEIN” (priority 2022, published 2026):
Entries after “also recorded” stand apart in the source; their conditions may differ.

Tests used:
[1] = biological target: T1, Flag-Tat (Human immunodeficiency virus type 1 (HXB3 ISOLATE), UniProt P69698); experiment: Degradation assay: Flag-Tat in HEK293T cells, western blot; assay type: cell-based, HIV; conditions: for effect of chloroquine or NH4Cl on compound induced Flag-Tat degradation: Chloroquine 100 μM or NH4Cl 50 mM, 8 hrs; for Flag-Tat degradation / steady state: western blot; for effect of Lenalidomide on compound induced Flag-Tat degradation: Lenalidomide 40 μM, 4 hrs; for effect of MG132 on compound induced Flag-Tat degradation: MG132 20 μM, 17 hrs
T1 construct: Tat 86 aa likely (9 lysines)
T1 sequence (P69698 whole entry): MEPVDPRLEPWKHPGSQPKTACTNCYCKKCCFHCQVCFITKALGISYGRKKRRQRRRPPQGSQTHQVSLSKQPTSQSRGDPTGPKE
Method: Next, the effect of the three leads on the alteration of Tat steady state levels was assessed. Tat expression from an integrated provirus, or from HIV acute infection is generally too low to be detected by western blot. Furthermore, antibodies against Tat are known for their lack of avidity. Tat degradation was thus assessed upon transfection. Flag-Tat or Flag-GFP were individually transfected into HEK293T and 24 hrs later, TT-44856, TT-44863 or TT-44881 were added to the culture, followed by Western blot 24 hrs later (dubbed “degradation assay”) (FIG. 5A). […] These cells were treated with TNFα (previously determined not be degraded by the three leads in FIG. 2D) in the presence of TT-44856, TT-44863 or TT-44881, followed by western blot with an anti-Flag antibody 17 hrs later. […] Finally, the leads' impact on recombinant Tat protein in HEK293T cells was assessed (FIG. 5D). HEK293T cells were incubated with recombinant Tat for 4 hrs to allow Tat internalization, followed by several thorough washes to remove unincorporated Tat. Cells were then incubated with all three leads (or Triptolide) for an additional 2 hrs. Cells were lysed and analyzed by western blot with an anti-Tat serum.
Degradation of Tat has been reported in the literature in multiple ways, including the lysosomal pathway^23, the ubiquitin-independent 20S proteasomal pathway (due to its unfolded structure)^24,25, and the ubiquitin-dependent 26S proteasomal pathway^26. It was first assessed whether Tat was targeted to the lysosomal pathway by the lead compounds. HEK293T cells were transfected with Flag-Tat for 24 hrs, incubated with the compounds for an additional 24 hrs, then treated for 8 hrs with either 100 μM chloroquine or 50 mM NH4Cl, both known to inhibit lysosomal hydrolases by reducing acidification. […] Both the 20S and the 26S proteasomal pathways were next investigated using MG132, an inhibitor of the catalytic […] of 20S present in both pathways^27. The degradation assay was carried out as above, but compounds were simultaneously incubated with MG132 20 μM or DMSO for 17 hrs followed by western blot. In the presence of MG132, Tat degradation was rescued, but the rescue was higher in the presence of the lead compounds (FIG. 6B).
Protein ubiquitination occurs by sequential recruitment of ubiquitin-activating enzyme E1, ubiquitin-conjugating enzyme E2, and ubiquitin ligase E3 (using ubiquitin, substrate protein, and ATP). The selectivity in protein ubiquitination is conferred by E3 ubiquitin ligases that recognize the substrate proteins^29 and the human genome contains more than 600 E3 ubiquitin ligases^29. To determine whether the small molecule leads trigger the 20S or the 26S proteasomal pathways, the Tat degradation assay was performed in the presence of commercially available E3 ligase inhibitors, including Lenalidomide a E3 ubiquitin ligase Cereblon inhibitor. Cereblon has not been previously reported to ubiquitinate Tat. The degradation assays were performed as above with Lenalidomide (40 μM) or DMSO incubation for 4 hrs in the presence of the lead molecules (FIG. 7A). […] To confirm the engagement of Cereblon in the mechanism of action of the lead compounds, shRNAs were used to stably knock down Cerebelon, or CD8 control, in HEK293T cells, and the degradation assay for TT-44856 was performed.
The involvement of the ubiquitous VHL E3 ligase in the activity of TT-44881 inducing Tat degradation was also investigated. HEK293T cells overexpressing Tat protein and VHL siRNAs (or si control) were treated with either TT-44881 (60 μM) and DMSO or TT-44881 with a VHL PROTAC (CM11, 500 nM) for 24 hours. siRNAs and PROTACs were used together to maximize the depletion of both VHL isoforms (30 and 19 kDa).

[2] = system: HIV Tat; experiment: Tat-TAR assay (HIV LTR luciferase transactivation, PL11 cells); assay type: cell-based; conditions: for activity against Tat 86 a.a. from different HIV clades: HIV clade B, C and E, n=1; for IC50 against Tat 86 and 101 residues (comparison): Tat 86 a.a. vs 101 a.a.
Text: Tat is a 14 kDa protein that is synthesized from an mRNA joined from 2 coding exons (FIG. 1B). The first exon encodes amino acids 1-72 and (in most strains of HIV), the second exon encodes amino acids 73-101. An N-terminal 86-amino acid form of Tat produced in a few laboratory-passaged virus strains is frequently used to study Tat. The classic cell-based Tat transactivation assay of the HIV LTR driving luciferase was optimized as a reporter gene for HTS9 (FIG. 2A). […] LTR activation is triggered by transfection of a plasmid expressing HIV-1HXB3 Tat (101 a.a.) driven by the phosphoglycerate (PGK) promoter.

[3] = system: GFP; experiment: Degradation assay control: GFP in HEK293T cells, western blot; assay type: cell-based
Method: (§1) Next, the effect of the three leads on the alteration of Tat steady state levels was assessed. Tat expression from an integrated provirus, or from HIV acute infection is generally too low to be detected by western blot. Furthermore, antibodies against Tat are known for their lack of avidity. Tat degradation was thus assessed upon transfection. Flag-Tat or Flag-GFP were individually transfected into HEK293T and 24 hrs later, TT-44856, TT-44863 or TT-44881 were added to the culture, followed by Western blot 24 hrs later (dubbed “degradation assay”) (FIG. 5A). […] Finally, the leads' impact on recombinant Tat protein in HEK293T cells was assessed (FIG. 5D). HEK293T cells were incubated with recombinant Tat for 4 hrs to allow Tat internalization, followed by several thorough washes to remove unincorporated Tat. Cells were then incubated with all three leads (or Triptolide) for an additional 2 hrs. Cells were lysed and analyzed by western blot with an anti-Tat serum.

[4] = biological target: T2, recombinant Tat (Human immunodeficiency virus type 1 (HXB3 ISOLATE), UniProt P69698); experiment: Recombinant Tat stability in HEK293T cells, western blot; assay type: cell-based, HIV; conditions: 4 hrs recombinant Tat then 2 hrs compound, n=1
T2 construct: detected with anti-Tat serum
T2 sequence (P69698 whole entry): as above
Method: as §1

[5] = Cytotoxicity assay, Cell-Titer-Glo, HeLa-CD4-LTR-LacZ; conditions: human, hela-cd4-ltr-lacz cells, Infectivity CC50, HeLa-CD4-LTR-LacZ
Summary of the method: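 HeLa-CD4-LTR-LacZ reporter cells (β-Gal under HIV 5′ LTR) infected with HIV NL4.3; β-Gal activity read 72 h post infection, with parallel Cell-Titer-Glo viability. OM10.1 carry a single wild-type provirus; ACH-2 a single provirus with TAR C37T mutation, defective Tat-TAR feedback.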

| Compound | effect of chloroquine or NH4Cl on compound induced Flag-Tat degradation ([1]; n=1) | Flag-Tat degradation / steady state ([1]; HEK293T) | effect of Lenalidomide on compound induced Flag-Tat degradation [1] | effect of MG132 on compound induced Flag-Tat degradation [1] | Tat degradation upon VHL depletion ([1]; VHL siRNA and VHL PROTAC CM11 500 nM, 24 hours, TT-44881 60 μM) | activity against Tat 86 a.a. from different HIV clades [2] | IC50 against Tat 86 and 101 residues (comparison) [2] | effect on GFP expression [3] | recombinant Tat degradation [4] | CC50 ([5]; analogs of TT-44881 (Table 1)) [µM] | CC50 ([5]; analogs of TT-44863 (Table 2)) [µM] | Flag-Tat degradation upon Cereblon knockdown ([1]; shRNA Cereblon, HEK293T, TT-44856 40 μM, n=1) | CC50 ([5]; analogs of TT-44856 (Table 3)) [µM] |
| --- | --- | --- | --- | --- | --- | --- | --- | --- | --- | --- | --- | --- | --- |
| O=C(CCCCN1CCCC1=O)c1nn(-c2ccccc2)c2c1CCC2 [TT-44881] | do not prevent lead hits induced Flag-Tat degradation | Tat protein degradation was observed | prevents Tat compounds induced Flag-Tat degradation | prevents lead hits induced Flag-Tat degradation | no longer depleted | activity was confirmed | Equivalent IC50 | did not affect GFP expression | degraded Tat as opposed to the DMSO control | > 100 | – | – | – |
| COCCOc1ccc(C(F)(F)F)cc1NC(=O)Cn1cc(C(F)(F)F)cc(Cl)c1=O [TT-44863] | do not prevent lead hits induced Flag-Tat degradation | Tat protein degradation was observed | prevents Tat compounds induced Flag-Tat degradation | prevents lead hits induced Flag-Tat degradation | – | activity was confirmed | Equivalent IC50 | did not affect GFP expression | degraded Tat as opposed to the DMSO control | – | > 800 | – | – |
| CC(C(=O)NCCCn1ccnc1)(c1ccccc1)c1ccccc1 [TT-44856] | do not prevent lead hits induced Flag-Tat degradation | Tat protein degradation was observed | prevents Tat compounds induced Flag-Tat degradation | prevents lead hits induced Flag-Tat degradation | – | activity was confirmed | Equivalent IC50 | did not affect GFP expression | degraded Tat as opposed to the DMSO control | – | – | no longer engaging Flag-Tat for degradation; also recorded: diminishes TT-44856 induced Flag-Tat degradation | > 100 |
